This passage reports Kd results from publication PMC4255499 (Frontiers in Physiology, 2014).

By Kd is commonly meant the equilibrium constant for the complex coming apart.

In the test the target is T1, α1-microglobulin (A1M) (Homo sapiens, UniProt P02760).
T1 construct: gene AMBP; Recombinant human A1M with an N-terminal His8-tag (tgA1M)
T1 sequence (P02760 20-203): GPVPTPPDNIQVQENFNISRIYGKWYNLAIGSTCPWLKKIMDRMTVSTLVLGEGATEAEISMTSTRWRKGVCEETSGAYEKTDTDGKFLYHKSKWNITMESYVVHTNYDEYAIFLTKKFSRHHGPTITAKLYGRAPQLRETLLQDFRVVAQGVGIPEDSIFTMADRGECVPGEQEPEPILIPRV
Description: SPR (tgA1M captured by anti-His antibody, […] binding model); also UV/Vis titration, induced CD, native PAGE shift.

Turning to `C=CC1=C(C)C2=Cc3c(C=C)c(C)c4[n]3[Fe][n]3c(c(C)c(CCC(=O)O)c3=CC3=NC(=C4)C(C)=C3CCC(=O)O)=CC1=N2` [heme], the Kd came to 7.02 µM.
